Assay results from BindingDB's records for doi:10.1021/acs.jmedchem.0c01280 (Abbvie, 2021).

Test: Inhibition of TNFalpha in mouse L929 cells exposed to compound incubated for 1 hr with mouse TNFalpha by luminescence based assay

Compound | IC50 [nM]
C[C@@H]1CN(c2ncc(-c3ccc4c(c3)N(Cc3cccnc3C#N)C(C)(C)C4=O)cn2)CCN1C(=O)CO | 119
C[C@@H]1CN(c2ncc(-c3ccc4c(c3)N(Cc3ccccc3OC(F)F)C(C)(C)C4=O)cn2)CCN1C(=O)CO | 146
CC1(C)C(=O)c2ccc(-c3cnc(N4CCN5C(=O)NC[C@@H]5C4)nc3)cc2N1Cc1cccnc1C#N | 99
CN1CCN(Cc2ccc(-c3c[nH]c4ccncc34)c(OCCc3ccc(-c4cccc5ccncc45)cc3)c2)CC1 | 128
